# In patent US4885301A, “Purinone derivatives which have bronchodilator, vasodilator and anti-allergic activities” (Smith Kline & French Laboratories Limited, priority 1987, dated 1989):
# Assays:
# [1] = tested on: U46619-induced bronchoconstriction; assay: Bronchodilatation in vivo: U46619-induced bronchoconstriction in anaesthetised guinea-pigs; design: species or system guinea-pig (male Dunkin Hartley); conditions: Cavia porcellus, iv; i.v. bolus; U46619 infused i.v. 2.5 nmol/min; peak inhibition; read-out: BD50 (dose required to reduce the U46619-induced bronchoconstriction by 50%)
# Method: Male guinea-pigs of the Dunkin Hartley strain (500-600 g) were anaesthetised with Sagatal (pentobarbital sodium) (60 mg/kg).
# The dose of compound required to reduce the U46619-induced bronchoconstriction by 50% is given as the BD50.
# [2] = biological target: T1, calmodulin insensitive cyclic GMP phosphodiesterase (Sus scrofa, UniProt A0A287B475); assay: Inhibition of phosphodiesterase (PDE), cyclic GMP hydrolysis; type: biochemical, pig; conditions: 1 μM cyclic GMP, pH 7.5, 37° C.
# T1 construct: Following dissection arteries were flash frozen in liquid nitrogen; from tissue; host or cells: pig pulmonary arteries or aortas, partially purified on DEAE-Sepharose, calmodulin-agarose and cibacron blue-agarose
# Method: (§1) Eight pig hearts/lungs were collected from the abattoir and kept on ice until the pulmonary arteries or aortas could be dissected and excess fat removed. 120 g of tissue was dissected. Unless otherwise stated all procedures were done at 4° C. Following dissection arteries were flash frozen in liquid nitrogen and stored at -70° C. until required. On the day of homogenisation, tissue was cooled with liquid nitrogen and broken into small pieces by striking with a hammer. The tissue was then homogenised in 15 mM BIS-TRIS, 1 μg/ml leupeptin and antipain, 2 μg/ml pepstatin A, 5 μM benzamidine, 2 mM EDTA (ethylenediaminetetraacetic acid) and 2 mM dithiothreitol, pH 6.5. Phenylmethanesulphonylfluoride (PMSF) was added to a final concentration of 50 μM just prior to homogenisation. The homogenate was then centrifuged for 20 minutes at 30,000 g. Supernatant was filtered firstly through glass wool and then a 0.45 μm filter. […] The column was washed with 150 mls of homogenisation buffer and PDE activities eluted with 150 ml of homogenisation buffer containing 100 mM sodium acetate. Six 25 ml fractions were collected, the flow rate throughout was 80 ml/hr.
# Fractions 2 and 3 were pooled and BIS-TRIS, MgCl2, CaCl2 added to final concentrations of 50 mM, 7 mM and 5 mM respectively. PMSF, leupeptin, antipain and pepstatin A were also added at the concentrations described above for these components. The pH of this pooled sample was corrected to 6.9.
# The sample was applied, at a flow rate of 3 ml/hr, to a tandem column set up. The first column in the tandem was a 5 ml calmodulin-agarose column (Sigma) and the second a 1.5 ml cibacron blue 3GA-agarose column (Sigma). Both columns were pre-equilibrated with 50 mM BIS-TRIS, 5 mM MgCl2, 5 mM CaCl2, 5 mM benzamidine, 2 mM dithiothreitol pH 6.9. Following application of the sample the columns were washed with 20 ml of equilibration buffer.
# The cibacron blue-agarose column was then disconnected and washed with a variety of buffers as indicated below (Buffer A=50 mM BIS-TRIS, 5 mM benzamidine, 2 mM dithiotheitol pH 7.0).
# 20 ml Buffer A+2M NaCl, 5 mM MgCl2
# 20 ml Buffer A+2M NaCl, 10 mM EDTA
# PDE activity bound to the column was eluted with eight 2.5 ml aliquots of Buffer A containing 2M NaCl, 10 mM EDTA and 10 mM cGMP. Fractions found to contain PDE activity were pooled and concentrated to approximately 1/3 the original volume by dialysis for 2 hr against Buffer A:glycerol (50:50) containing 15 mM 2-mercaptoethanol, 2 mM EDTA. After dialysis the concentration of cGMP in the fraction was reduced by treatment using a PD-10 column (Pharmacia) using dialysis buffer.
# The fraction produced was stored at -20° C. and for experiments diluted 50-fold and used as the source of PDE activity for the assay of compounds.
# The standard reaction mixture contained, in a final volume of 100 μl,
# 1 μM 3', 5'-cGMP (including 0.1 μCi ^3 H-cGMP)
# and buffered with 50 mM TRIS/5 mM MgCl2 pH 7.5. The reaction was initiated with enzyme, and was carried out at 37° C. for 5-10 minutes. The reaction was terminated by placing tubes in a boiling water bath for 2 minutes. […] Unreacted ^3 H-cGMP was washed from the column with 10×1 ml HEPES/NaCl buffer. Labelled […] was eluted into a scintillation vial with 6 ml 0.25M acetic acid and counted in a scintillation counter using 10 ml Instagel (Packard). […] Assays were performed in duplicate and values corrected for blanks of <2%.
# [3] = tested on: hindquarter vascular resistance; assay: Vasodilatation in vivo: hindquarter blood flow in anaesthetised rats; design: species or system rat (male Wistar); conditions: Rattus norvegicus, iv, bolus i.v., read-out: EDHQ50 (dose required to produce a 50% increase in hindquarter blood flow)
# Method: Male Wistar rats (300 g) were anaesthetised with a sodium 5-ethyl-5-(1-methylpropyl)-2-thiobarbiturate/sodium pentobarbitone mixture i.p. (62.5 and 22.5 mg/kg respectively). The trachea was cannulated and the rats breathed spontaneously air enriched with O2 (5 ml/min). Blood pressure was recorded from a carotid artery and a jugular vein was cannulated for the administration of compounds. The temperature of the animal was maintained at 37° C. by the use of an electric blanket. […] The perfusion circuit was primed with 5% bovine serum albumin dissolved in 0.9% sodium chloride solution, pH adjusted to 7.4. Initially the pump rate was set between 10 and 15 ml/min to match the hind quarter perfusion pressure to that of the systemic circulation. Once set the pressure remained unaltered for the rest of the experiment. A change in the speed of the pump (equivalent to hindquarter blood flow) was used to assess the changes in hindquarter vascular resistance.
# All compounds were administered as a bolus i.v. and from the dose response curves the dose required to produce a 50% increase in hindquarter blood flow (EDHQ50) was determined in μmoles/kg.
# [4] = tested on: guinea-pig isolated trachea; assay: Anti-allergic activity in vitro: ovalbumin-induced contraction of isolated trachea from sensitized guinea pigs; design: species or system guinea pig (male Hartley); conditions: for activity at 100 µM / Emax at 100 µM: Cavia porcellus, mean ± S.E.; for activity at 100 µM: 0.2 h, 30 min pretreatment, 12 minutes after OA (0.1 μg/ml), decline P<0.05, read-out: OA-induced contractile force as percentage of vehicle-treated control; for Emax at 100 µM: prior to OA challenge, N=4, read-out: reduction of basal tone, as a percentage of the maximum response to carbachol; for inhibition of antigen-induced contraction (in words): guinea-pig isolated trachea, 100 μM
# Method: The animals were injected intramuscularly with 0.7 ml of a 5.0% OA solution prepared in isotonic saline. Four weeks after sensitization tracheas were removed and cut into spiral strips. Each trachea was cut half, placed in 10-ml water-jacketed tissue baths and attached with biological tissue clips via silk suture to force displacement transducers for recording isometric tension. One half of each trachea served as a control for the corresponding drug-treated tissue. […] The tissue preparations were placed under 2 g passive tension and equilibrated for 60 minutes, during which time they were washed every 15 minutes with fresh buffer. Each tissue was pretreated for 45 minutes with meclofenamic acid (1 μM).
# Tissues were pretreated with the compound under test (100 μM), or vehicle (0.4 mM NaOH) for 30 minutes prior to the addition of OA. OA (0.1 μg/ml) was added to all tissues and the contraction was monitored for 15 minutes. […] To evaluate effects of the test compounds, the degree of contraction was calculated 2 and 12 minutes after the addition of OA. OA-induced contraction of drug-treated tissues was expressed as a percentage of the response of vehicle-treated, paired controls.
# Results are expressed as a mean ±S.E. of 4 experiments. Statistical significance of differences between the means of control and drug-treated groups was determined using a paired Student's t test.
# [5] = tested on: antigen-induced bronchoconstriction; assay: Anti-allergic activity in vivo: ovalbumin-induced bronchoconstriction in sensitized anesthetized guinea pigs; design: species or system guinea pig (adult male albino Hartley); conditions: 100 μmol/kg intraduodenal
# Method: Adult male albino Hartley strain guinea pigs weighing 400-600 g were actively sensitized to OA according to the procedure hereinbefore described. To measure pulmonary mechanics, a polyethylene catheter was inserted into the trachea of anesthetized (sodium pentobarbital, 35 mg/kg, i.p.) animals and airflow was measured via a heated pneumotachograph in combination with a differential pressure transducer connected to the pneumotachograph. Airflow and transpulmonary pressure signals were fed into an on-line pulmonary mechanics computer which integrated the flow signal to obtain tidal volume. Total pulmonary resistance (RL) and dynamic lung compliance (CDYN) were calculated at isovolumetric points according to the method of Amdur and Mead (Am. J. Physiol. 192:364-368, 1958).
# A compound under test was dissolved in 25 mM NaHCO3 plus one drop of polyethylene glycol 400 to a concentration of 100 mM. Based on the weight of the animal, the appropriate amount of solution was removed and the volume brought up to 1 ml with 25 mM NaHCO3. For the intraduodenal administration of test compounds, a small midline incision was made in the abdomen, the duodenum was exposed, and a butterfly needle attached to plastic tubing was inserted. All solutions were adjusted to the same volume (1 ml) and administered through the butterfly needle and followed with 0.5 ml of distilled water. The needle was then removed and the abdominal incision was stapled to prevent heat loss.
# Aerosols of OA were generated to deliver approximately 0.375 μl/breath. Pressure, flow rate and sensitivity were set such that a maximum pleural pressure of 20 cm water was attained during inhalation. One hour after the administration of the test compounds, quinea pigs were challenged with 5 inhalations of OA (0.5 mg/ml) via the tracheal cannula and changes in CDYN and RL were monitored for 10 minutes. […]
# Results are expressed as a mean ± S.E. of 4 experiments. Statistical significance of differences between the means of control and drug-treated groups was determined using a unpaired Student's t test.
# [6] = tested on: PDE activity isolated from pig pulmonary arteries or aortas; assay: Properties of PDE activity: substrate kinetics; type: biochemical
# Method: as §1
# Fractions 2 and 3 were pooled and BIS-TRIS, MgCl2, CaCl2 added to final concentrations of 50 mM, 7 mM and 5 mM respectively. PMSF, leupeptin, antipain and pepstatin A were also added at the concentrations described above for these components. […]
Compound,ED50 [1],IC50 [2],also measured
"CC(C)COc1ccccc1-c1nc2[nH]c(=O)[nH]c2c(=O)[nH]1 [Example 9, 2-(2-Isobutoxypheny)purine-6,8-dione]",4.5 µmol/kg,3.64 µM,–
"CCCCOc1ccccc1-c1nc2nc[nH]c2c(=O)[nH]1 [Example 3, 2-(2-Butoxyphenyl)-6-purinone]",3.8 µmol/kg,5.04 µM,–
"CCCOc1ccccc1-c1nc2nc[nH]c2c(=O)[nH]1 [Example 1, 2-(2-Propoxyphenyl)-6-purinone]",3.6 µmol/kg,–,"ED50 [3]: 10.8 µmol/kg; activity at 100 µM [4]: 46 ± 9%; Emax at 100 µM [4]: 17 ± 3%; inhibition of antigen-induced contraction (in words) [4]: inhibit antigen-induced contraction of the guinea-pig isolated trachea; antigen-induced bronchoconstriction (in words) ([5]; 60 minutes before OA challenge, N=4): significantly reduced antigen-induced bronchoconstriction; increase in total pulmonary resistance (RL) after OA challenge ([5]; 60 minutes before OA, 5 minutes after challenge, N=4, mean ± S.E., P<0.05 vs. vehicle (vehicle 162±40%)): 51±26%; dynamic lung compliance (CDYN) after OA challenge (in words) ([5]; 60 minutes before OA, 5 minutes after challenge, P<0.01 vs. vehicle): unchanged from baseline"
"CCOc1ccccc1-c1nc2[nH]c(=O)[nH]c2c(=O)[nH]1 [Example 7, 2-(2-Ethoxyphenyl)purine-6,8-dione]",3.6 µmol/kg,5.26 µM,–
"CCCCOc1ccccc1-c1nc2[nH]c(=O)[nH]c2c(=O)[nH]1 [Example 8, 2-(2-Butoxyphenyl)purine-6,8-dione]",1.5 µmol/kg,6.79 µM,–
"CCOc1ccccc1-c1nc2nc[nH]c2c(=O)[nH]1 [Example 2, 2-(2-Ethoxyphenyl)-6-purinone]",6.5 µmol/kg,4.49 µM,–
"CC(C)COc1ccccc1-c1nc2nc[nH]c2c(=O)[nH]1 [Example 4, 2-(2-Isobutoxyphenyl)-6-purinone]",5.3 µmol/kg,1.74 µM,–
Nc1nc2c(ncn2[C@@H]2O[C@@H]3COP(=O)(O)O[C@H]3[C@H]2O)c(=O)[nH]1 [cGMP],–,–,Ratio of cGMP/cAMP hydrolysis ([6]; 1 μM substrate): 30; Km ([6]; substrate of the isolated PDE): 1.3 µM
"CCCOc1ccccc1-c1nc2[nH]c(=O)[nH]c2c(=O)[nH]1 [Example 5, 2-(2-Propoxyphenyl)purine-6,8-dione]",1 µmol/kg,1.25 µM,ED50 [3]: 3.7 µmol/kg; activity at 100 µM [4]: 60 ± 4%; Emax at 100 µM [4]: 24 ± 7%; inhibition of antigen-induced contraction (in words) [4]: inhibit antigen-induced contraction of the guinea-pig isolated trachea
